In US12173283B2, “Cell model for in vitro evaluation of compound-induced skin sensitization and a constructing method therefor” (South China University Of Technology, priority 2017, dated 2024):

Legend:
[1] = test system: HMOX1 gene (luciferase reporter); experiment: Luciferase expression assay in HMOX1-luciferase knock-in HaCaT monoclone No. 38 (detection of compound sensitization); format: cell-based; settings: human, HMOX1-luciferase knock-in HaCaT cells, clone No. 38, detection range of concentration 4 μM˜1000 μM, 48 h incubation, compared with negative control group, read-out: expression of luciferase (fold induction), highest reached
Protocol: 4. Analysis of sensitization of compounds after gene knock-in Sensitization of compounds was detected using clone No. 38.
Pre-cultured cells were centrifuged followed by removal of the supernatant, and were resuspended in fresh complete medium. The cell concentration was calculated with a cell counter after dilution for 10 times, and finally was adjusted to 50,000 cells/well. 200 μL of the cell solution was added to each well of a white opaque 96-well plate to ensure that the number of cells per well was substantially the same. The cell was incubated for 24 h at 37° C. in a 5% CO2 incubator. After 24 h, the medium was removed, and a working solution was prepared with 1% FBS medium. […] After 48 h, luciferase expression was measured and cell viability was detected using MTT.
• (1) 48 hours after treatment, the medium containing the reagent was discarded, and the plate was washed twice with PBS; • (2) 100 μL of PBS was added to each well, and then an equal volume of the luciferase substrate was added; • (3) The plate was shaken at 200 rpm for 2 min to fully lyse the cells; • (4) A Tecan Infinite® 200 Pro multi-function microplate reader selecting luminescence, integration 0.5s was used and the reading was recorded. […]

HMOX1 gene target site = experiment: T7EI digestion identification of target site cleavage by sgRNA co-transfected with hCas9 into 293T cells; format: cell-based; settings: co-transfected with hCas9 plasmid, 72 hours, FIG. 1
Protocol: sgRNA-1, sgRNA-10, sgRNA-13 plasmid and hCas9 plasmid were co-transfected into 293T cells respectively. After 72 hours, the genome was extracted and expanded with the primers in Table 2 on the target site, and the PCR product was identified by T7EI digestion.
The sgRNA-1, sgRNA-10, and sgRNA-13 plasmids were co-transfected into the 293T cells with a H-Cas9 plasmid (using liposome transfection), and the transfection steps were as follows: • (1) The prior medium was discarded, and 2 mL of fresh medium for incubation was added; • (2) 0.5 μg of the sgRNA recombinant plasmid and 0.5 μg of the hCas9 plasmid were dissolved in 100 μL of DMEM (H), 3 μL of a liposome transfection reagent was diluted to 100 μL, and the diluted liposome transfection reagent was added to the diluted plasmid solution. The mixture was gently blew evenly, formulated into a transfection complex, and reacted at room temperature for 15 min; • (3) The transfection complex was dropped into 6 wells, and reacted at 37° C. for 5 h. Then the reaction solution was discarded, and fresh medium was added for cultivation. Genome Extraction Process
PCR amplification of sgRNA-1, sgRNA-10, and sgRNA-13 was carried out using the extracted genome after transfection as a template; PCR amplification was performed using the wild type (WT) as a template and primers with SEQ ID NO: 6-7 as shown in Table 2. […]

Row | Compound | fold induction at 48 h [1] | cleavage of the target site (T7EI digestion) (HMOX1 gene target site)
1 | Sc1nc2ccccc2s1 [2-mercaptobenzothiazole] | ≤ 30 | –
2 | OCC=Cc1ccccc1 [cinnamyl alcohol] | ≤ 21 | –
3 | sgRNA-1: specific sgRNA near the stop codon of HMOX1 gene, sequence TTAACAGGTGGGCGTGCATCAGG, Exon 5 (expressed or natural sequence) | – | can effectively cleave the target site
4 | sgRNA-13: specific sgRNA near the stop codon of HMOX1 gene, sequence GCTTTATGCCATGTGAATGCAGG, Exon 5 (expressed or natural sequence; the letters are possibly those of the target site) | – | can effectively cleave the target site
